Reference: patent publication US11395822B2, “Methods for treating Huntington's disease” (PTC Therapeutics, Inc., priority 2017, dated 2022)

Test system: Endogenous Huntingtin Protein
Assay: Endogenous Huntingtin Protein Assay (ELISA-based MSD electrochemiluminescence)
Assay type: cell-based
Conditions: MSD plates coated with MW1 (expanded polyglutamine) or MAB2166 capture antibody
Description: Compounds of Formula (I) were tested using the Meso Scale Discovery (MSD) Assay provided in International Application No. PCT/US2016/066042, filed on Dec. 11, 2016 and claiming priority to U.S. Provisional Application U.S. 62/265,652 filed on Dec. 10, 2015, and published as International Publication No. WO 2017/100726 on Jun. 15, 2017, the entire contents of which are incorporated herein by reference.
The Endogenous Huntingtin Protein assay used in Example 1 was developed using the ELISA-based MSD electrochemiluminescence assay platform.
Endogenous Huntingtin Protein Assay
Meso Scale Discovery (MSD) 96-well or 384-well plates were coated overnight at 4° C. with MW1 (expanded polyglutamine) or MAB2166 monoclonal antibody (for capture) at a concentration of 1 μg/mL in PBS (30 μL per well). Plates were then washed three times with […] wash buffer (0.05% Tween-20 in PBS) and blocked (100 μL blocking buffer; 5% BSA in PBS) for 4-5 hours at room temperature with rotational shaking and then washed three times with wash buffer.
Samples (25 μL) were transferred to the antibody-coated MSD plate and incubated overnight at 4° C. After removal of the lysates, the plate was washed three times with wash buffer, and 25 μL of #5656S (Cell signaling; rabbit monoclonal) secondary antibody (diluted to 0.25 μg/mL in 0.05% Tween-20 in blocking buffer) was added to each well and incubated with shaking for 1 Hour at room temperature. Following incubation with the secondary antibody, the wells were rinsed with wash buffer after which 25 μL of goat anti-rabbit SULFO TAG secondary detection antibody (required aspect of the MSD system) (diluted to 0.25 μg/mL in 0.05% Tween-20 in blocking buffer) was added to each well and incubated with shaking for 1 hour at room temperature. After rinsing three times with wash buffer, 150 μL of read buffer T with surfactant (MSD) were added to each empty well, and the plate was imaged on a SI 6000 imager (MSD) according to manufacturers' instructions provided for 96- or 384-well plates.

Compound	IC50
Cc1cn2nc(-c3cc(=O)n4cc(N5CCN[C@H](C)C5)ccc4n3)cc(C)c2n1 [Compound 886, (R)-2-(2,8-dimethylimidazo[1,2-b]pyridazin-6-yl)-7-(3-methylpiperazin-1-yl)-4H-pyrido[1,2-a]pyrimidin-4-one]	≤ 100 nM
Cc1cn2nc(-c3cc(=O)n4cc(N5CCNC(C)(C)C5)ccc4n3)cc(C)c2n1 [Compound 899, 2-(2,8-dimethylimidazo[1,2-b]pyridazin-6-yl)-7-(3,3-dimethylpiperazin-1-yl)-4H-pyrido[1,2-a]pyrimidin-4-one]	100 to 500 nM
Cc1cn2nc(-c3cc(=O)n4cc(N5CCNC6(CC6)C5)cc(C)c4n3)cc(C)c2n1 [Compound 905, 2-(2,8-dimethylimidazo[1,2-b]pyridazin-6-yl)-9-methyl-7-(4,7-diazaspiro[2.5]octan-7-yl)-4H-pyrido[1,2-a]pyrimidin-4-one]	1000 to 3000 nM
